Measurements reported in US20090221518A1, “Compositions and Methods for Treatment of Exudative Serous Effusion” (Anaborex, Inc., priority 2007, published 2009).
Marks after values point to notes of the source that are not given here.

Key:
lung cancer = lung cancer patients; cited from earlier work
C-reactive protein (CRP) [1] = assay: C-reactive protein in gastrocnemius muscle lysate (Quantikine Rat CRP Immunoassay Kit), rat AH model; type: in vivo, female Wistar rats; conditions: Experiment 2, 50 mg/kg ip
Experimental: Following the method of Busquets et al., female Wistar rats were inoculated (Day 0) intraperitoneally (ip) with 2×10^7 cells/animal of Yoshida AH-130 ascites hepatoma (AH) cells. Control animals were inoculated with an equivalent amount of sterile saline solution. […] The roxithromycin dosing solution was 2 mg/mL in 20 mM citrate, pH of 5.5, and 4.5% mannitol in water. Serum samples were collected prior to sacrifice on D5 and assayed for serum albumin concentration. After determination of gastrocnemius muscle wet weight, some gastrocnemius samples were lysed and determinations made of C-reactive protein (CRP, using Quantikine Rat CRP Immunoassay Kit) and total protein. A commercial immunoassay kit (Quantikine Rat VEGF Immunoassay, R & D Systems PN RRV00) was used to determine Vascular Endothelial Growth Factor (VEGF) concentration in plasma and ascites. Similarly, CRP concentration in plasma and ascites was determined using a commercial kit (Rat High-Sensitive CRP ELISA Method, Kamiya Biochemical PN KT099). In Experiment 2, the single treatment group received 50 mg/kg roxithromycin (ip). Ascites volumes, serum albumin concentrations, and CRP levels in dissected gastrocnemius muscle were determined. AH cell counts and cell viability (%) were determined in recovered ascites fluid.

[2] = test system: Yoshida AH-130 ascites hepatoma (AH) cells; assay: Ascites volume in rat AH (Yoshida AH-130 ascites hepatoma) model; type: in vivo, female Wistar rats; conditions: for Ascites (mL) Mean: AH-inoculated rats
Experimental: Following the method of Busquets et al., female Wistar rats were inoculated (Day 0) intraperitoneally (ip) with 2×10^7 cells/animal of Yoshida AH-130 ascites hepatoma (AH) cells. Control animals were inoculated with an equivalent amount of sterile saline solution. […] The roxithromycin dosing solution was 2 mg/mL in 20 mM citrate, pH of 5.5, and 4.5% mannitol in water. The animals were sacrificed on Day 5. Upon sacrifice ascites fluid was withdrawn by syringe and the volume determined. Three different experiments were performed. In each experiment one control group received an ascites hepatoma (AH) inoculation with vehicle treatment, and a second control group received saline inoculation with vehicle treatment. In Experiment 1, the single treatment group received 5 mg/kg roxithromycin (ip). Ascites volumes were determined. In Experiment 2, the single treatment group received 50 mg/kg roxithromycin (ip). Ascites volumes, serum albumin concentrations, and CRP levels in dissected gastrocnemius muscle were determined. AH cell counts and cell viability (%) were determined in recovered ascites fluid. In Experiment 3, one treatment group received 40 mg/kg (ip) roxithromycin, and a second treatment group received 40 mg/kg (po). Ascites volumes, plasma CRP and VEGF concentrations, and ascites CRP and VEGF concentrations were determined.

[3] = test system: Yoshida AH-130 ascites hepatoma (AH) cells; assay: AH cell count and viability in recovered ascites fluid, rat AH model; type: in vivo, female Wistar rats
Experimental: Following the method of Busquets et al., female Wistar rats were inoculated (Day 0) intraperitoneally (ip) with 2×10^7 cells/animal of Yoshida AH-130 ascites hepatoma (AH) cells. Control animals were inoculated with an equivalent amount of sterile saline solution. […] The roxithromycin dosing solution was 2 mg/mL in 20 mM citrate, pH of 5.5, and 4.5% mannitol in water.
For the cell count measurements in ascites, the cells were counted directly from the ascites collected at necropsy from N 4 animals in […]. A […] aliquot was taken from each sample and diluted 1:500 with trypan blue. The sample was then placed onto a hemacytometer and both sides counted to determine the total number of viable and non-viable AH cells.
In Experiment 2, the single treatment group received 50 mg/kg roxithromycin (ip). Ascites volumes, serum albumin concentrations, and CRP levels in dissected gastrocnemius muscle were determined. AH cell counts and cell viability (%) were determined in recovered ascites fluid.

serum albumin = assay: Serum albumin concentration, rat AH model; type: in vivo, female Wistar rats; conditions: Experiment 2; 50 mg/kg ip
Experimental: Following the method of Busquets et al., female Wistar rats were inoculated (Day 0) intraperitoneally (ip) with 2×10^7 cells/animal of Yoshida AH-130 ascites hepatoma (AH) cells. Control animals were inoculated with an equivalent amount of sterile saline solution. […] The roxithromycin dosing solution was 2 mg/mL in 20 mM citrate, pH of 5.5, and 4.5% mannitol in water. […] In Experiment 2, the single treatment group received 50 mg/kg roxithromycin (ip). Ascites volumes, serum albumin concentrations, and CRP levels in dissected gastrocnemius muscle were determined. AH cell counts and cell viability (%) were determined in recovered ascites fluid.

[4] = test system: Vascular Endothelial Growth Factor (VEGF); assay: VEGF concentration in plasma and ascites (Quantikine Rat VEGF Immunoassay), rat AH model; type: in vivo, female Wistar rats; conditions: Experiment 3; for Ascites [VEGF] Mean: ascites fluid; for Ascites VEGF pg/rat Mean: concentration times ascites volume
Experimental: (§1) Following the method of Busquets et al., female Wistar rats were inoculated (Day 0) intraperitoneally (ip) with 2×10^7 cells/animal of Yoshida AH-130 ascites hepatoma (AH) cells. Control animals were inoculated with an equivalent amount of sterile saline solution. […] The roxithromycin dosing solution was 2 mg/mL in 20 mM citrate, pH of 5.5, and 4.5% mannitol in water. Serum samples were collected prior to sacrifice on D5 and assayed for serum albumin concentration. After determination of gastrocnemius muscle wet weight, some gastrocnemius samples were lysed and determinations made of C-reactive protein (CRP, using Quantikine Rat CRP Immunoassay Kit) and total protein. A commercial immunoassay kit (Quantikine Rat VEGF Immunoassay, R & D Systems PN RRV00) was used to determine Vascular Endothelial Growth Factor (VEGF) concentration in plasma and ascites. Similarly, CRP concentration in plasma and ascites was determined using a commercial kit (Rat High-Sensitive CRP ELISA Method, Kamiya Biochemical PN KT099). In Experiment 3, one treatment group received 40 mg/kg (ip) roxithromycin, and a second treatment group received 40 mg/kg (po). Ascites volumes, plasma CRP and VEGF concentrations, and ascites CRP and VEGF concentrations were determined.

C-reactive protein (CRP) [5] = assay: CRP concentration in plasma and ascites (Rat High-Sensitive CRP ELISA), rat AH model; type: in vivo, female Wistar rats; conditions: Experiment 3; for Ascites [CRP] Mean: ascites fluid; for Ascites CRP ng/rat Mean: concentration times ascites volume; for Plasma [CRP] Mean: AH-inoculated
Experimental: as §1

[6] = macrolide given to rats prior to carrageenan stimulation; cited from earlier work
[7] = Experiment 2, ascites, AH-inoculated, 50 mg/kg ip, N = 4

Compound: CC[C@H]1OC(=O)[C@H](C)[C@@H](O[C@H]2C[C@@](C)(OC)[C@@H](O)[C@H](C)O2)[C@H](C)[C@@H](O[C@@H]2O[C@H](C)C[C@H](N(C)C)[C@H]2O)[C@](C)(OC)C[C@@H](C)C(=O)[C@H](C)[C@@H](O)[C@]1(C)O [clarithromycin]
- IL6 levels (lung cancer): reduced
- Median survival time (lung cancer): significantly increased

Compound: CC[C@H]1OC(=O)[C@H](C)[C@@H](O[C@H]2C[C@@](C)(OC)[C@@H](O)[C@H](C)O2)[C@H](C)[C@@H](O[C@@H]2O[C@H](C)C[C@H](N(C)C)[C@H]2O)[C@](C)(O)C[C@@H](C)/C(=N\OCOCCOC)[C@H](C)[C@@H](O)[C@]1(C)O [roxithromycin]
- Muscle CRP levels versus AH-inoculated vehicle animals (C-reactive protein (CRP) [1]): did significantly reduce
- Muscle CRP Mean (C-reactive protein (CRP) [1]; gastrocnemius muscle, AH-inoculated rats): 28.5 ng/mg total protein
- Accumulated ascites fluid versus vehicle control ([2]; Experiment 1, 5 mg/kg (ip), difference not statistically significant): lowered the accumulated ascites fluid
- Ascites (mL) Mean ([2]; Experiment 1, 5 mg/kg ip qd from Day 1, sacrifice Day 5): 3.48** mL
- Accumulated ascites volume versus vehicle control ([2]; Experiment 2, 50 mg/kg ip): very significantly reduced
- Ascites (mL) Mean ([2]; Experiment 2, 50 mg/kg ip qd, Day 5): 2.92 mL
- Accumulated ascites volume versus vehicle control ([2]; Experiment 3, 40 mg/kg given either po or ip): very significantly reduced
- Ascites (mL) Mean ([2]; Experiment 3, 40 mg/kg i.p. qd, Day 5): 3.0 mL
- Ascites (mL) Mean ([2]; Experiment 3, 40 mg/kg oral, bid, Day 5): 3.7 mL
- AH cell densities or cell counts versus vehicle control ([3]; Experiment 2, 50 mg/kg ip): did not reduce
- Viable Cells % Mean ([3]; Experiment 2, ascites AH cells, trypan blue, 50 mg/kg ip, N = 4): 99%
- Cells/mL × 10^6 Mean [3, 7]: 338 Cells/mL × 10^6
- Total Cells # × 10^6 Mean [3, 7]: 2,077 × 10^6
- Cytostatic or cytotoxic activity toward ascites hepatoma cells ([3]; rat AH model, conclusion from cell counts and viability): does not appear to be cytostatic or cytotoxic
- Serum albumin levels versus AH-inoculated vehicle animals (serum albumin): did not significantly change
- Ascites [VEGF] Mean ([4]; 40 mg/kg i.p. qd (Group 9)): 4,590 pg/mL
- Ascites [VEGF] Mean ([4]; 40 mg/kg oral, bid (Group 10)): 4,040 pg/mL
- Ascites VEGF pg/rat Mean ([4]; 40 mg/kg i.p. qd (Group 9)): 10,200 pg/rat
- Ascites VEGF pg/rat Mean ([4]; 40 mg/kg oral, bid (Group 10)): 9,900 pg/rat
- Plasma VEGF concentration ([4]; plasma, 40 mg/kg ip qd or oral bid): below the immunoassay method quantitation limit
- Influence on VEGF levels ([4]; rat AH model): does not influence VEGF levels
- Total CRP per rat in ascites versus vehicle control (C-reactive protein (CRP) [5]; 40 mg/kg given either orally or intraperitoneally): statistically significantly reduced
- Plasma CRP concentration versus vehicle-treated animals (C-reactive protein (CRP) [5]; 40 mg/kg ip): lowered plasma CRP concentration compared with the vehicle-treated animals, but the differences were not statistically significant
- Plasma CRP concentration versus vehicle-treated animals (C-reactive protein (CRP) [5]; 40 mg/kg oral): very significantly lowered
- Ascites [CRP] Mean (C-reactive protein (CRP) [5]; 40 mg/kg i.p. qd (Group 9)): 230 ng/mL
- Ascites [CRP] Mean (C-reactive protein (CRP) [5]; 40 mg/kg oral, bid (Group 10)): 287 ng/mL
- Ascites CRP ng/rat Mean (C-reactive protein (CRP) [5]; 40 mg/kg i.p. qd (Group 9)): 530 ng/rat
- Ascites CRP ng/rat Mean (C-reactive protein (CRP) [5]; 40 mg/kg oral, bid (Group 10)): 730 ng/rat
- Plasma [CRP] Mean (C-reactive protein (CRP) [5]; 40 mg/kg i.p. qd): 709 µg/mL
- Plasma [CRP] Mean (C-reactive protein (CRP) [5]; 40 mg/kg oral, bid): 593 µg/mL
- Exudate accumulation in rat paws [6]: limit exudate accumulation
